Measurements: patent US8318762B2, “Pyrazolospiroketone acetyl-CoA carboxylase inhibitors” (Pfizer Inc., priority 2008, dated 2012)
Like-named read-outs stand apart in the source and are kept apart here.

Biological target: T1, recombinant human ACC2 (Homo sapiens, UniProt O00763)
T1 construct: a full length Cytomax clone of ACC2 was purchased from Cambridge Bioscience Limited; made in house; host or cells: CHO cells (tetracycline induction, pcDNA5 FRT TO-TOPO); purified on a Softlink Soft Release Avidin column
T1 sequence (O00763 whole entry): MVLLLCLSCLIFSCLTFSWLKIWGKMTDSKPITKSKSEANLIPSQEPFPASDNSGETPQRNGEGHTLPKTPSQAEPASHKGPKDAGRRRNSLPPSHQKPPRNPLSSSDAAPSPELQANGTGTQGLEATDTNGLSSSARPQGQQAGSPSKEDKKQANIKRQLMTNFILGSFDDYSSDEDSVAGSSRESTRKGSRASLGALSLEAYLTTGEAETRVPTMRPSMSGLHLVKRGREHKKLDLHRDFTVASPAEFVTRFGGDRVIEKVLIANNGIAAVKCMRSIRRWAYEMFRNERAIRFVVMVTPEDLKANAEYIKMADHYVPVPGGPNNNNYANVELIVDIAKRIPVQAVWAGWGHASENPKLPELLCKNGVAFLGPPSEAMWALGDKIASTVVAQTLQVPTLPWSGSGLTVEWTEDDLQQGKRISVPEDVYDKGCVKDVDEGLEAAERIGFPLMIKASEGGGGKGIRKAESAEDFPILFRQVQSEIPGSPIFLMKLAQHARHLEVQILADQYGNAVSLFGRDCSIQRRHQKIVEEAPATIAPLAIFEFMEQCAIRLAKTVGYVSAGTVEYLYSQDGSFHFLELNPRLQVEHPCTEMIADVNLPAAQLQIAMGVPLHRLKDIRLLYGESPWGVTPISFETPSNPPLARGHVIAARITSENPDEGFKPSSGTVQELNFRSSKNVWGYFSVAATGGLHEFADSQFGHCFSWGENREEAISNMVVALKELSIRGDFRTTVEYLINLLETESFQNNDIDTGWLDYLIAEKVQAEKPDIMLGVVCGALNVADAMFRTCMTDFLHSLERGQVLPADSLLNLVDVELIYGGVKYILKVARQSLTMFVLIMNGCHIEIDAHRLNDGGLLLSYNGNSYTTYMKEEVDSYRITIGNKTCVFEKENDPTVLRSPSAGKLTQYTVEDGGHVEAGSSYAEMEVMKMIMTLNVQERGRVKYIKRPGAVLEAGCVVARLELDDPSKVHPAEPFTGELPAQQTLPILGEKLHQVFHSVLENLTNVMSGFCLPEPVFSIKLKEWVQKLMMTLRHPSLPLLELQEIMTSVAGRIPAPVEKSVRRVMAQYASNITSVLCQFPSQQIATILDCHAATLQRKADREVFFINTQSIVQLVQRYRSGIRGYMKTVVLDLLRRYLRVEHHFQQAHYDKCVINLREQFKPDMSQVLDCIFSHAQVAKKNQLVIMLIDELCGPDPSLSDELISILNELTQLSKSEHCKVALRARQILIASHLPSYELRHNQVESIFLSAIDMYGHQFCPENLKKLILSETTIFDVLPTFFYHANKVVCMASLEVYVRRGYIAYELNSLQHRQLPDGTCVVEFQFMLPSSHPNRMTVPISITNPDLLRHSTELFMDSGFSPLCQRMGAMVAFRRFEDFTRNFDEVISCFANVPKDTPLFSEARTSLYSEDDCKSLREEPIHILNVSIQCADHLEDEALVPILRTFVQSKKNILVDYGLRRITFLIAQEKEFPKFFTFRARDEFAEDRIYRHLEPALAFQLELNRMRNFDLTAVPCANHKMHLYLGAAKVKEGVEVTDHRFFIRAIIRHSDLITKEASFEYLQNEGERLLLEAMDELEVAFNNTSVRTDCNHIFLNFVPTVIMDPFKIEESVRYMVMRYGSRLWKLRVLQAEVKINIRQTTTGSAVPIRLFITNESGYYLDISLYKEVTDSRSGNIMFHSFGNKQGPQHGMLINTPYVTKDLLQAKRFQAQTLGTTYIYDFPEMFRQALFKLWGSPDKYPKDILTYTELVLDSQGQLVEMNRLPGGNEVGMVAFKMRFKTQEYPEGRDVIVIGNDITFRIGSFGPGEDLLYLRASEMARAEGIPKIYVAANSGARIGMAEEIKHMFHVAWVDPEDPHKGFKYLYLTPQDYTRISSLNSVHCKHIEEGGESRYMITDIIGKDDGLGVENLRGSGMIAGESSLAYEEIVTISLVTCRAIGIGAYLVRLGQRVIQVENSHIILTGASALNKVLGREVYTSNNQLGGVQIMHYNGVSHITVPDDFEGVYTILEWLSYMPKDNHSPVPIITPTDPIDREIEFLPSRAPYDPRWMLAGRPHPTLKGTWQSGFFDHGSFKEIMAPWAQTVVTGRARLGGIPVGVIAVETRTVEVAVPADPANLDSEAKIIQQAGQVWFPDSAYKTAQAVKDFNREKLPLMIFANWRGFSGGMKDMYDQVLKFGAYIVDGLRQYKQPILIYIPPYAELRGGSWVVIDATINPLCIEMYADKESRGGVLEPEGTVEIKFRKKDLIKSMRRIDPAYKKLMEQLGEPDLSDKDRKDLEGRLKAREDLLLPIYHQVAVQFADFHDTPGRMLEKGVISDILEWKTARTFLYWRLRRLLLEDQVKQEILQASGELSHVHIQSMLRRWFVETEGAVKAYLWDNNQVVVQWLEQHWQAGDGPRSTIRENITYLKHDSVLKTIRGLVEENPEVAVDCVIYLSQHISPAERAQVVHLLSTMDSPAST
Test: Measurement of human ACC2 inhibition (recombinant hACC2 Transcreener ADP detection FP assay)
Format: biochemical
Protocol: [3] Measurement of human ACC2 inhibition. Human ACC2 inhibition was measured using purified recombinant human ACC2 (hrACC2). […] The ACC2 was expressed in CHO cells by tetracycline induction and harvested in 5 liters of DMEM/F12 with glutamine, biotin, hygromycin and blasticidin with 1 μg/mL tetracycline (Invitrogen, Carlsbad, Calif.). The conditioned medium containing ACC2 was then applied to a Softlink Soft Release Avidin column (Promega, Madison, Wis.) and eluted with 5 mM biotin. […] The purified ACC2 was dialyzed in 50 mM Tris, 200 mM NaCl, 4 mM DTT, 2 mM EDTA, and 5% glycerol. […] The final conditions for the assay were 50 mM HEPES, pH7.5, 5 mM MgCl2, 5 mM tripotassium citrate, 2 mM DTT, 0.5 mg/mL BSA, 30 μM acetyl-CoA, 50 μM ATP, and 8 mM KHCO3. Typically, a 10 μl reaction was run for 1 hour at room temperature, and 10 μl of Transcreener stop and detect buffer was added and incubated for an additional 1 hour.

[1] = recombinant hACC2 transcreener assay, read-out: rhACC2 IC50

| SMILES | IC50 [1] [nM] | IC50 [nM] |
| --- | --- | --- |
| Cc1n[nH]c2c(C)cc(C(=O)N3CCC4(CC3)CC(=O)c3nn(C(C)C)cc3O4)cc12 [1.002] | 8 | – |
| CCCn1cc2c(n1)C(=O)CC1(CCN(C(=O)c3cc(C)c4[nH]nc(C)c4c3)CC1)O2 [1.004] | 20 | – |
| Cc1n[nH]c2c(C)cc(C(=O)N3CCC4(CC3)CC(=O)c3nn(C)c(C)c3O4)cc12 [1.005] | 117 | – |
| Cc1n[nH]c2c(C)cc(C(=O)N3CCC4(CC3)CC(=O)c3nn(C)cc3O4)cc12 [1.006] | 80 | – |
| CCc1c2c(nn1C)C(=O)CC1(CCN(C(=O)c3cc(C)c4[nH]nc(C)c4c3)CC1)O2 [1.007] | 189 | – |
| Cc1n[nH]c2c(C)cc(C(=O)N3CCC4(CC3)CC(=O)c3nn(C5CCCCC5)cc3O4)cc12 [1.008] | 21 | – |
| Cc1n[nH]c2c(C)cc(C(=O)N3CCC4(CC3)CC(=O)c3nn(C5CCCC5)cc3O4)cc12 [1.009] | 4 | – |
| Cc1n[nH]c2c(C)cc(C(=O)N3CCC4(CC3)CC(=O)c3nn(C5CCC5)cc3O4)cc12 [1.010] | 4 | – |
| Cc1n[nH]c2c(C)cc(C(=O)N3CCC4(CC3)CC(=O)c3nn(C(C)(C)C)c(C)c3O4)cc12 [1.011] | 15 | – |
| Cc1n[nH]c2c(C)cc(C(=O)N3CCC4(CC3)CC(=O)c3nn(C(C)C)c(C)c3O4)cc12 [1.013] | 8 | – |
| Cc1n[nH]c2c(C)cc(C(=O)N3CCC4(CC3)CC(=O)c3nn(C5CC5)c(C)c3O4)cc12 [1.014] | 9 | – |
| Cc1n[nH]c2c(C)cc(C(=O)N3CCC4(CC3)CC(=O)c3nn(C5CCOC5)cc3O4)cc12 (stereo not shown) [1.016] | 22 | – |
| CCc1n[nH]c2c(C)cc(C(=O)N3CCC4(CC3)CC(=O)c3nn(C(C)C)cc3O4)cc12 [1.017] | 3 | – |
| CCOc1cc(C(=O)N2CCC3(CC2)CC(=O)c2nn(CC)c(C)c2O3)cc2c(CC)n[nH]c12 [1.018] | 34 | – |
| CCc1n[nH]c2c(C)cc(C(=O)N3CCC4(CC3)CC(=O)c3nn(CC)cc3O4)cc12 [1.019] | 18 | – |
| CCc1n[nH]c2c(C)cc(C(=O)N3CCC4(CC3)CC(=O)c3nn(C(C)(C)C)cc3O4)cc12 [1.020] | 3 | – |
| CCn1cc2c(n1)C(=O)CC1(CCN(C(=O)c3cc(C)c4[nH]ncc4c3)CC1)O2 [1.025] | 54 | – |
| COc1cc(-n2nc3c(c2C)OC2(CCN(C(=O)c4cc(C)c5[nH]ncc5c4)CC2)CC3=O)ccc1C#N [1.028] | 127 | – |
| Cc1cc(C(=O)N2CCC3(CC2)CC(=O)c2nn(C)cc2O3)cc2cn[nH]c12 [1.029] | – | 629 |
| Cc1cc(C(=O)N2CCC3(CC2)CC(=O)c2nn(C)c(C)c2O3)cc2cn[nH]c12 [1.030] | 376 | – |
| Cc1cc(C(=O)N2CCC3(CC2)CC(=O)c2nn(Cc4ccccc4)c(C)c2O3)cc2cn[nH]c12 [1.033] | 487 | – |
| CCc1c2c(nn1C)C(=O)CC1(CCN(C(=O)c3cc(C)c4[nH]ncc4c3)CC1)O2 [1.035] | 367 | – |
| Cc1cc(C(=O)N2CCC3(CC2)CC(=O)c2nn(C4CCCCC4)cc2O3)cc2cn[nH]c12 [1.037] | 60 | – |

| SMILES | IC50 [1] [nM] | IC50 [nM] |
| --- | --- | --- |
| Cc1cc(C(=O)N2CCC3(CC2)CC(=O)c2nn(C(C)C)c(C)c2O3)cc2cn[nH]c12 [1.040] | 15 | – |
| Cc1cc(C(=O)N2CCC3(CC2)CC(=O)c2nn(C4CCOC4)c(C)c2O3)cc2cn[nH]c12 (stereo not shown) [1.041] | 46 | – |
| Cc1cc(C(=O)N2CCC3(CC2)CC(=O)c2nn(C(C)(C)C)c(C)c2O3)cc2cn[nH]c12 [1.043] | 43 | – |
| CCc1n[nH]c2c(OC)cc(C(=O)N3CCC4(CC3)CC(=O)c3nn(C(C)C)cc3O4)cc12 [1.044] | 5 | – |
| CCc1n[nH]c2c(OC)cc(C(=O)N3CCC4(CC3)CC(=O)c3nn(CC)c(C)c3O4)cc12 [1.045] | 22 | – |
| CCc1n[nH]c2c(OC)cc(C(=O)N3CCC4(CC3)CC(=O)c3nn(CC)cc3O4)cc12 [1.046] | 29 | – |
| CCc1n[nH]c2c(OC)cc(C(=O)N3CCC4(CC3)CC(=O)c3nn(C(C)(C)C)cc3O4)cc12 [1.047] | 2 | – |
| CCc1n[nH]c2c(OC)cc(C(=O)N3CCC4(CC3)CC(=O)c3nn(C5CCCCC5)cc3O4)cc12 [1.048] | 18 | – |
| CCc1n[nH]c2c(OC)cc(C(=O)N3CCC4(CC3)CC(=O)c3nn(C5CCCC5)cc3O4)cc12 [1.049] | 7 | – |
| CCc1n[nH]c2c(OC)cc(C(=O)N3CCC4(CC3)CC(=O)c3nn(C5CCC5)cc3O4)cc12 [1.050] | 5 | – |
| COc1cc(C(=O)N2CCC3(CC2)CC(=O)c2nn(C(C)C)cc2O3)cc2cn[nH]c12 [1.051] | 17 | – |
| CCn1nc2c(c1C)OC1(CCN(C(=O)c3cc(OC)c4[nH]ncc4c3)CC1)CC2=O [1.052] | 33 | – |
| CCn1cc2c(n1)C(=O)CC1(CCN(C(=O)c3cc(OC)c4[nH]ncc4c3)CC1)O2 [1.053] | 62 | – |
| COc1cc(C(=O)N2CCC3(CC2)CC(=O)c2nn(C(C)(C)C)c(C)c2O3)cc2cn[nH]c12 [1.054] | 29 | – |
| COc1cc(C(=O)N2CCC3(CC2)CC(=O)c2nn(C(C)C)c(C)c2O3)cc2cn[nH]c12 [1.055] | 10 | – |
| CCc1cc(C(=O)N2CCC3(CC2)CC(=O)c2nn(CC)c(C)c2O3)cc2cn[nH]c12 [1.056] | 35 | – |
| CCc1cc(C(=O)N2CCC3(CC2)CC(=O)c2nn(CC)cc2O3)cc2cn[nH]c12 [1.057] | 40 | – |
| CCc1cc(C(=O)N2CCC3(CC2)CC(=O)c2nn(C)cc2O3)cc2cn[nH]c12 [1.059] | 210 | – |
| CCc1cc(C(=O)N2CCC3(CC2)CC(=O)c2nn(C(C)(C)C)cc2O3)cc2cn[nH]c12 [1.060] | 6 | – |
| CCn1nc2c(c1C)OC1(CCN(C(=O)c3cc(Cl)c4[nH]ncc4c3)CC1)CC2=O [1.061] | 54 | – |
| CCn1cc2c(n1)C(=O)CC1(CCN(C(=O)c3cc(Cl)c4[nH]ncc4c3)CC1)O2 [1.062] | 43 | – |
| Cc1c2c(nn1C)C(=O)CC1(CCN(C(=O)c3cc(Cl)c4[nH]ncc4c3)CC1)O2 [1.063] | 137 | – |
| CC(C)(C)n1cc2c(n1)C(=O)CC1(CCN(C(=O)c3cc(Cl)c4[nH]ncc4c3)CC1)O2 [1.065] | 8 | – |

| SMILES | IC50 [1] [nM] | IC50 [nM] |
| --- | --- | --- |
| CC(C)n1cc2c(n1)C(=O)CC1(CCN(C(=O)c3cc(Cl)c4[nH]ncc4c3)CC1)O2 [1.066] | 26 | – |
| CC(C)n1cc2c(n1)C(=O)CC1(CCN(C(=O)c3ccc4[nH]ncc4c3)CC1)O2 [1.067] | 50 | – |
| CCn1nc2c(c1C)OC1(CCN(C(=O)c3ccc4[nH]ncc4c3)CC1)CC2=O [1.068] | 84 | – |
| CCn1cc2c(n1)C(=O)CC1(CCN(C(=O)c3ccc4[nH]ncc4c3)CC1)O2 [1.069] | 197 | – |
| Cc1c2c(nn1C)C(=O)CC1(CCN(C(=O)c3ccc4[nH]ncc4c3)CC1)O2 [1.070] | 713 | – |
| Cn1cc2c(n1)C(=O)CC1(CCN(C(=O)c3ccc4[nH]ncc4c3)CC1)O2 [1.071] | 773 | – |
| Cc1c2c(nn1C(C)(C)C)C(=O)CC1(CCN(C(=O)c3ccc4[nH]ncc4c3)CC1)O2 [1.072] | 61 | – |
| Cc1c2c(nn1C(C)C)C(=O)CC1(CCN(C(=O)c3ccc4[nH]ncc4c3)CC1)O2 [1.073] | 35 | – |
| COc1cc(C(=O)N2CCC3(CC2)CC(=O)c2nn(C(C)C)cc2O3)cc2c(C)n[nH]c12 [1.075] | 6 | – |
| COc1cc(C(=O)N2CCC3(CC2)CC(=O)c2nn(C(C)(C)C)cc2O3)cc2c(C)n[nH]c12 [1.076] | 2 | – |
| CCn1nc2c(c1C)OC1(CCN(C(=O)c3cc(OC)c4[nH]nc(C)c4c3)CC1)CC2=O [1.077] | 15 | – |
| COc1cc(C(=O)N2CCC3(CC2)CC(=O)c2nn(C(C)C)c(C)c2O3)cc2c(C)n[nH]c12 [1.078] | 4 | – |
| CCn1cc2c(n1)C(=O)CC1(CCN(C(=O)c3cc(OC)c4[nH]nc(C)c4c3)CC1)O2 [1.079] | 12 | – |
| CCn1nc2c(c1C)OC1(CCN(C(=O)c3ccc4[nH]nc(C)c4c3)CC1)CC2=O [1.080] | 36 | – |
| Cc1n[nH]c2ccc(C(=O)N3CCC4(CC3)CC(=O)c3nn(C(C)C)cc3O4)cc12 [1.081] | 10 | – |
| CCCn1cc2c(n1)C(=O)CC1(CCN(C(=O)c3ccc4[nH]nc(C)c4c3)CC1)O2 [1.082] | 53 | – |
| CCn1cc2c(n1)C(=O)CC1(CCN(C(=O)c3ccc4[nH]nc(C)c4c3)CC1)O2 [1.083] | 43 | – |
| Cc1n[nH]c2ccc(C(=O)N3CCC4(CC3)CC(=O)c3nn(C)cc3O4)cc12 [1.085] | 403 | – |
| Cc1n[nH]c2ccc(C(=O)N3CCC4(CC3)CC(=O)c3nn(C(C)(C)C)cc3O4)cc12 [1.086] | 3 | – |
| Cc1n[nH]c2ccc(C(=O)N3CCC4(CC3)CC(=O)c3nn(C5CCCCC5)cc3O4)cc12 [1.087] | 135 | – |
| Cc1n[nH]c2ccc(C(=O)N3CCC4(CC3)CC(=O)c3nn(C5CCCC5)cc3O4)cc12 [1.088] | 16 | – |
